# Legend:
# dog IgE = assay: Intravenous administration test using rats: IgG antibody against dog IgE (ELISA); assay type: in vivo; details: i.v.
# Protocol: The dog IgE protein (Bethyl Laboratories, Inc.; P115), the mouse IgE protein (BD Biosciences, San Jose, Calif., USA), and the human IgE protein (Athens Research And Technology, Inc.; 16-16-090705-ML) were each prepared at 1 μg/mL, 500 ng/mL, 250 ng/mL, 125 ng/mL, 62.5 ng/mL, 31.2 ng/mL, 15.6 ng/mL, 7.8 ng/mL, 3.9 ng/mL, 1.95 ng/mL, and 0.97 ng/mL in an immobilization buffer (0.05 M carbonate buffer, pH 9.6), then added at a concentration of 100 μL/well to an ELISA plate, and left overnight at 4° C. The immobilization plate was washed once with PBS-T (0.05%). A blocking solution (4× Block Ace, Snow Brand Milk Products Co., Ltd.; UK-B80) was added thereto at a concentration of 200 μL/well. The plate was blocked by incubation at 37° C. for 1.5 hours. The serum was diluted 2000-fold with a diluent (PBS-T:Block Ace=9:1) and used. The serum of an unimmunized rat was similarly diluted and used as a negative control. […] Then, the measurement was performed using a plate reader (Bio-Rad Laboratories, Inc.; model 680) (dual: measurement: 450 nm, control: 570 nm).
# This peptide was used in the immunization of rats without the use of an adjuvant, and antibody response to dog IgE was evaluated. […]
# Blood was collected every 2 weeks from the administer start date up to 8 weeks after the third immunization. Serum was collected, and an IgG antibody against dog IgE was evaluated by ELISA (FIG. 13). […]
# human IgE = assay: Test using dog (Part 1): IgG antibody against human IgE (ELISA); assay type: in vivo; details: healthy beagles 8 months old, s.c. 1 mg five times at 2-week intervals, no adjuvant
# Protocol: The peptide (M4-7-11) was concentration-adjusted to 2 mg/mL with saline, dispensed in an amount of 500 μL, and used as a vaccine. […] The vaccine administration method was subcutaneous administration of 1 mg per dose, which was performed five times at 2-week intervals. Another purpose of this test was to study the frequency of administration of the vaccine.
# Dog: 4 healthy beagles (8 months old; 2 males and 2 females) were used.
# Vaccine: the M4-7-11 peptide was used alone without being conjugated.
# Administration method: 1 mg (500 μl, of 2 mg/mL) per dose was subcutaneously administered five times at 2-week intervals.
# Evaluation: serum was collected approximately once per week, and an IgG antibody against human IgE was assayed by ELISA. Since dog IgE nonspecifically reacts with an anti-dog IgG antibody, human IgE having no nonspecific reaction was used in ELISA.
# Human IgE (Athens Research And Technology, Inc.; IgE, human Myeloma Plasma) was prepared at 1 μg/mL in an immobilization buffer (0.05 M carbonate buffer, pH 9.6), then added at a concentration of 100 μL/well to an ELISA plate, and left overnight at 4° C. The immobilization plate was washed once with PBS-T (0.05%). […] Then, the measurement was performed using a plate reader (Bio-Rad Laboratories, Inc.; model 680) (dual: measurement: 450 nm, control: 570 nm). […]
sequence,measurement,setting,value
KKTSVSASQWYTKHHNNATT (listed as Mus musculus) [M4-7-11],anti-dog IgE IgG antibody titers in rat serum,"dog IgE; all dose groups, final day (8 weeks after the third vaccination day)",3000 times
same,level of the IgG antibody against dog IgE,"dog IgE; rat, 1 mg, 500 μg, 100 μg or 50 μg per animal three times, no adjuvant, all groups",a rise in the level of the IgG antibody against dog IgE was confirmed
same,level of the IgG antibody against IgE,human IgE,confirmed to elevate
same,level of the IgG antibody against IgE,human IgE; listed as M4-11-17,a rise in the level of the IgG antibody against IgE

# Source: patent US9657071B2, “IgE peptide vaccine” (NIPPON ZENYAKU KOGYO CO., LTD., priority 2012, dated 2017)
